Data on nine compounds can be found in patent US8361962B2, “Tricyclic inhibitors of JAK” (Roche Palo Alto LLC, priority 2009, dated 2013).

Broadly, the IC50 is the concentration at which inhibition is half-maximal. One may read the Ki as a measure of affinity in units of concentration, obtained from inhibition or displacement.

T1 sequence (P52333 822-1111 limits assumed): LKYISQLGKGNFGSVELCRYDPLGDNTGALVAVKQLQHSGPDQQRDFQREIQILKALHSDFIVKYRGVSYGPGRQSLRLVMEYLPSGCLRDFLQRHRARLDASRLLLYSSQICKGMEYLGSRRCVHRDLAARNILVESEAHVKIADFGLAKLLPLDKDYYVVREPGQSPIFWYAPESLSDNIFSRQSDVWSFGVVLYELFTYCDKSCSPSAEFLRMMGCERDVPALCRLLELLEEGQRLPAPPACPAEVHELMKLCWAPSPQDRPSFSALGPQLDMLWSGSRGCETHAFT

The assay addresses T1, h-jak3 (JAK3: Recombinant human kinase domain) (Homo sapiens, UniProt P52333).
T1 construct: JAK3: Recombinant human kinase domain from Millipore (Cat # 14-629); purchased Millipore 14-629
Kind of assay: Determination of IC50 of Janus Kinase (JAK) inhibition, radioactive end-point 33P-ATP assay, JAK3. The class given is biochemical. An excerpt: Determination of IC50 of Janus Kinase (JAK) Inhibition:
Enzymes and peptide substrate used are described below: • JAK1: Recombinant human kinase domain from Invitrogen (Cat # PV4774) • JAK3: Recombinant human kinase domain from Millipore (Cat # 14-629) • JAK2: Recombinant human kinase domain from Millipore (Cat # 14-640) • Substrate: N-terminally biotinylated 14-mer peptide derived from activation loop of JAK1 with sequence of the peptide substrate: Biotin-KAIETDKEYYTVKD (SEQ ID NO: 1)
Assay conditions used are described below: • Assay Buffer: JAK Kinase Buffer: 50 mM Hepes [pH 7.2], 10 mM MgCl2, 1 mM DTT, 1 mg/ml BSA. The assay is carried out in this buffer. • Assay Format: The kinase activity of all three JAK kinases is measured using a radioactive, end-point assay and with trace amounts of ^33P-ATP. The assays are carried out in 96-well polypropylene plates. Experimental Method:
All concentrations are final in the reaction mixture and all incubations are carried at room temperature. Assay steps are described below: • Compounds are serially diluted in 100% DMSO typically at a 10× starting concentration of 1 mM. Final concentration of DMSO in the reaction is 10%. • Compounds are preincubated with enzyme (0.5 nM JAK3, 1 nM JAK2, 5 nM JAK1) for 10 minutes. • Reactions are initiated by the addition of a cocktail of the two substrates (ATP and peptide premixed in the JAK Kinase Buffer). In the JAK2/JAK3 assays, ATP and the peptide are used at concentrations of 1.5 uM and 50 uM, respectively. JAK1 assay is carried out at an ATP concentration of 10 uM and a peptide concentration of 50 uM. The duration of the assay for JAK2 and JAK3 is 20 minutes. JAK1 assay is carried out for 40 minutes. With all three enzymes, reactions are terminated by the addition of 0.5M EDTA to a final concentration of 100 mM. • 25 ul of terminated reactions are transferred to 150 ul of a 7.5% (v/v) slurry of streptavidin-coated sepharose beads in MgCl2- and CaCl2-free 1× Phosphate Buffered Saline containing 50 mM of EDTA in 96-well, 1.2 um MultiScreen-BV filter plates. After a 30-minute incubation, the beads are washed under vacuum with the following buffers: • 3 to 4 washes with 200 ul of 2M NaCl. • 3 to 4 washes with 200 ul of 2M NaCl plus 1% (v/v) phosphoric acid. • 1 wash with water. • Washed plates are dried in a 60° C. oven for between 1 to 2 hours. • 70 ul of Microscint 20 scintillation fluid is added to each well of filter plates and after at least 30 minutes of incubation, radioactive counts are measured in a Perkin Elmer microplate scintillation counter.
Turning to `CCS(=O)(=O)N1CCC(C)[C@H](c2ccc3cnc4[nH]ccc4n23)C1` (stereo in doubt) [Compound I-5, 8-((3S,4S)-1-Ethanesulfonyl-4-methyl-piperidin-3-yl)-3H-3,4,8a-triaza-as-indacene], the IC50 came out at 203 nM and the Ki was determined as 119 nM.

As to `c1cc2c(ncc3ccc(C4CCCCC4)n32)[nH]1` [Compound I-2, 8-Cyclohexyl-3H-3,4,8a-triaza-as-indacene], the IC50 was determined as 20.2 nM and the Ki is 10.4 nM.

For `CC1CCCCN1c1ccc2cnc3[nH]ccc3n12` (centres unmarked) [Compound I-3, 8-(2-Methyl-piperidin-1-yl)-3H-3,4,8a-triaza-as-indacene], the IC50 was determined as 39.9 nM and the Ki was determined as 20.5 nM.

For the compound `CCS(=O)(=O)N1CC[C@H](C)[C@H](c2ccc3cnc4[nH]ccc4n23)C1` [Compound I-4, 8-((3S,4S)-1-Ethanesulfonyl-4-methyl-piperidin-3-yl)-3H-3,4,8a-triaza-as-indacene], the Ki stood at 0.964 nM.

For the compound `C[C@H]1CCCC[C@H]1c1nnc2cnc3[nH]ccc3n12` [Compound I-6, 1-((1R,2S)-2-Methyl-cyclohexyl)-6H-2,3,5,6,8b-pentaaza-as-indacene], the IC50 worked out at 69.3 nM and the Ki was 35.5 nM.

As to `CCS(=O)(=O)N1CC[C@@H](C)[C@@H](c2nnc3cnc4[nH]ccc4n23)C1` [Compound I-7, 1-((3R,4R)-1-Ethanesulfonyl-4-methyl-piperidin-3-yl)-6H-2,3,5,6,8b-pentaaza-as-indacene], the half-inhibitory concentration (IC50) worked out at 231 nM and the Ki was 103 nM.

With `c1cc2c(ncc3nnc(C4CCCCC4)n32)[nH]1` [Compound I-8, 1-Cyclohexyl-6H-2,3,5,6,8b-pentaaza-as-indacene], the IC50 turned out to be 449 nM and the Ki was 225 nM.

Regarding `C[C@H]1CCN(C(=O)CC#N)C[C@H]1c1nnc2cnc3[nH]ccc3n12` [Compound I-9, 3-[(3S,4S)-4-Methyl-3-(6H-2,3,5,6,8b-pentaaza-as-indacen-1-yl)-piperidin-1-yl]-3-oxo-propionitrile], the IC50 turned out to be 25 nM and the Ki came out at 12.8 nM.

As for `c1cc2c(ncc3cnc(C4CCCCC4)n32)[nH]1` [Compound I-10, 1-Cyclohexyl-6H-2,5,6,8b-tetraaza-as-indacene], the IC50 came out at 93 nM and the Ki was 47.7 nM.
